According to patent publication US20120141491A1, “METHODS AND COMPOSITIONS FOR THE TREATMENT OF CANCERS AND PATHOGENIC INFECTIONS” (priority 2009, published 2012):
“Also recorded” adds a separate entry of the source. Like-named read-outs stand apart in the source and are kept apart here.

What was measured:
Type in all cases: cell-based
[1] = tested on: Saos-2 osteosarcoma cells expressing GFP-LC3; experiment: Autophagy response by punctate localization of GFP-LC3 to autophagic vacuoles, fluorescence microscopy; conditions: for Activate Autophagy Response: Table 1; for Induction of autophagy: Table 2; for Enhancement of autophagy (GFP-LC3 at autophagic vacuoles) / Stimulation of autophagy compared with amino acid and serum starved cells (FIG. 2G): enriched (Fed) medium; for Stimulation of autophagy compared with amino acid and serum starved cells (FIG. 2G): 100 μM
Method: FIGS. 2A-2G. Activation of autophagy by Bcl-XL targeting compounds. The positions of C2 in Site 1 (FIG. 2A), C5 in Site 1 (FIG. 2B), and C8 in Site 2 (FIG. 2C) of Bcl-xl are shown by in silico molecular docking. Saos-2 osteosarcoma cells expressing GFP-LC3 were incubated in enriched (Fed) medium in the presence of C2 (FIG. 2D), C5 (FIG. 2E) and C8 (FIG. 2F) Bcl-targeted compounds. GFP-LC3 is found diffuse throughout the cytosol and nucleus when autophagy is suppressed. Ongoing autophagy can be visualized by the presence of GFP-LC3 at autophagic vacuoles (AVs) that appear as dots (arrows). […] In FIG. 2E, Saos-2 osteosarcoma cells expressing GFP-LC3 were incubated in enriched (Fed) medium in the absence and presence of Bcl-targeted compounds or in medium lacking amino acids and serum (Starved).
FIG. 4A-4F. Activation of autophagy by Bcl-targeted compounds. The localization of GFP-LC3 to autophagic vacuoles was enhanced by […] Bcl-targeted compounds in Saos-2 osteosarcoma cells. The autophagy response in fed Saos2 cells was measured in the absence and presence of anti-Bcl compounds by visualizing the punctate localization of GFP-LC3 (FIGS. 4A-4C) and RFP-GFP-LC3 (FIGS. 4D-4F) to autophagic vacuoles. In untreated fed cells, the GFP-LC3 is localized uniformly throughout the cell. […] Autophagy in cells expressing RFP-GFP-LC3 (FIGS. 4D-4F) was activated with compound B2-1. Structures containing RFP (red, FIG. 4D) and GFP (green, FIG. 4E) are autophagosomes (arrow), while RFP (red, FIG. 4D) structures are autolysosomes (arrowhead).
(§1) FIGS. 5A-5C. Characterization of proBeclin 1 compounds. Upon ranking 100 NCl compounds by in silico docking to Bcl-xl, the autophagy responses were evaluated in fed Saos-2 cells expressing GFP-LC3 (FIG. 5A). […] Cells were maintained in nutrient-rich medium in the absence and presence of Bcl-targeted compounds for 4 hr. The cells were then solubilized, Beclin 1 complex immunoprecipitated, and the Beclin 1 hound proteins identified by Western blotting (FIG. 5C). The IgG-LC is the immunoglobin light chain of the anti-Beclin 1 antibody that was used to immunoprecipitate the complex. The absence of Bcl-xl is indicative of an inhibition of Beclin 1 binding.
This was done in Saos-2 osteosarcoma cells stably expressing the autophagosome marker, GFP-LC3. In fed cells not undergoing autophagy GFP-LC3 is a soluble protein found throughout the cytosol. In amino acid and serum starved cells, autophagy is activated and GFP-LC3 becomes associated with autophagic vacuoles that can be visualize by fluorescence microscopy.
(§2) When autophagy is suppressed, GFP-LC3 distributes uniformly throughout the cellular cytoplasm (FIG. 4A). Autophagy response can be observed by visualizing the punctuate pattern of GFP-LC3 indicative of the presence of autophagic vacuoles. We can also use tandem-labeled LC3, RFP-GFP-LC3 to better assess the dynamics of the autophagy response by visualizing both autophagosomes and autolysosomes (FIG. 4D-4F). […] To further substantiate that the accumulation of GFP-LC3 structures is not due to a blockage of basal autophagy but the positive effects of the compounds on the autophagy response, the autophagy response is validated by quantitative protein turnover measures using radiolabeled amino acids (FIG. 5B). Finally, we determine whether the compound interferes with Beclin 1 binding to Bcl-xl (FIG. 5C) and Bcl-2 as we would suspect if the compound acts through the intended novel mechanism of action.

Beclin 1/Bcl binding = Beclin 1/Bcl binding by immunoprecipitation with anti-Beclin 1 antibodies and Western blotting; conditions: for Inhibit Beclin 1 Binding: Table 1; for Beclin 1 binding to Bcl-xl / Bcl proteins: nutrient-rich medium, 4 hr
Source text: FIGS. 5A-5C. Characterization of proBeclin 1 compounds. […] Cells were maintained in nutrient-rich medium in the absence and presence of Bcl-targeted compounds for 4 hr. The cells were then solubilized, Beclin 1 complex immunoprecipitated, and the Beclin 1 hound proteins identified by Western blotting (FIG. 5C). The IgG-LC is the immunoglobin light chain of the anti-Beclin 1 antibody that was used to immunoprecipitate the complex.
Autophagy response can be observed by visualizing the punctuate pattern of GFP-LC3 indicative of the presence of autophagic vacuoles. We can also use tandem-labeled LC3, RFP-GFP-LC3 to better assess the dynamics of the autophagy response by visualizing both autophagosomes and autolysosomes (FIG. 4D-4F). […] Finally, we determine whether the compound interferes with Beclin 1 binding to Bcl-xl (FIG. 5C) and Bcl-2 as we would suspect if the compound acts through the intended novel mechanism of action.

protein degradation = experiment: Protein degradation by pulse-chase methods using 14C-valine; conditions: for Rates of protein degradation (FIG. 5B): 14C-valine pulse-chase, compared to a control compound, n=6; for Stimulate Protein Degradation: Table 1; for Proteolysis, bar coding of FIG. 5A: black bar stimulated, striped bar inhibited
Method: as §1, §2

NeuT cells = tested on: NeuT cells
Method: FIGS. 3A-3E. Effects of Bcl-XL targeted small compounds on the autophagy response and cell survival in NeuT cells. The positions of C4 in Site 1 (FIG. 3A), and C9 in Site 2 (FIG. 3B) of Bcl-xl are shown by in silico molecular docking. NeuT (Her2-positive breast cancer cell line) cells expressing GFP-LC3 were incubated in enriched (Fed) medium in the presence of C4 (FIG. 3C) and C9 (FIG. 3D) Bcl-targeted compounds. GFP-LC3 is found on autophagic vacuole that appear as dots (arrows). In FIG. 3E, the survival of NeuT cells was quantified after 20h of treatment with 0.1-1000 μM of Site 1 (C2 and C4) and Site 2 (C7 and C9) compounds.
Cell survival is suppressed by Bcl2-targeted compounds: Next, we examined the effects of the Bcl-xl targeted compounds C2, C4, C7, and C9 on autophagy and cell death in Her2/Neu-positive NeuT breast carcinoma cells (FIGS. 3A-E).

In the case of `O=C(O)CCn1c(=O)[nH]c(=O)n(CCC(=O)O)c1=O` [NSC11693], the “Activate Autophagy Response” value [1] is reported as “Yes” and the Induction of autophagy [1] is reported as “NSC 11693 Induces autophagy; not tested for the induction of cell death”.

In the case of `CN(C)CCNNC1CCCN(C)C1` (stereo not drawn) [NSC21689], the “Inhibit Beclin 1 Binding” value (Beclin 1/Bcl binding) is reported as “No”, the “Beclin 1 binding to Bcl-xl / Bcl proteins” value (Beclin 1/Bcl binding; listed as Bx-16) is reported as “did not; also recorded: do not appear to affect Beclin 1 binding; also recorded: does not inhibit Beclin 1 binding as well as Bx-8” and the “Rates of protein degradation (FIG. 5B)” value (protein degradation) is reported as “activate”. The “Stimulate Protein Degradation” value (protein degradation) was “Yes”, the “Activate Autophagy Response” value [1] was “Yes” and the “Enhancement of autophagy (GFP-LC3 at autophagic vacuoles)” value (“Enhancement of autophagy” for short) [1] was “activate autophagy”.

With `C1CC2NCCC3NCCC(N1)N32` (stereo not drawn) [NSC81462, Dodecahydro-1,4,7,9b-tetraazaphenalene] the “Inhibit Beclin 1 Binding” value (Beclin 1/Bcl binding) was “Yes”, the “Beclin 1 binding to Bcl-xl / Bcl proteins” value (Beclin 1/Bcl binding; listed as Bx-8) was “inhibited Beclin 1 binding; also recorded: inhibiting Beclin 1 binding” and the “Rates of protein degradation (FIG. 5B)” value (protein degradation; listed as Bx-8) was “elevated; also recorded: stimulate”. The “Stimulate Protein Degradation” value (protein degradation) was “Yes”, the “Proteolysis, bar coding of FIG. 5A” value (protein degradation) was “stimulated proteolysis” and the “Activate Autophagy Response” value [1] was “Yes”. For the same compound, the “Enhancement of autophagy” value [1] was “stimulate autophagy”.

With `O=C1/C(=N\Nc2cc(Cl)ccc2O)C(S(=O)(=O)O)=Cc2cc(S(=O)(=O)O)cc(O)c21` [NSC100234, (3E)-3-[(5-chloro-2-hydroxyphenyl)hydrazinyleidene]-5-hydroxy-4-oxonapthalene-2,7-disulfonic acid] the “Inhibit Beclin 1 Binding” value (Beclin 1/Bcl binding) was “Yes”, the “Beclin 1 binding to Bcl-xl / Bcl proteins” value (Beclin 1/Bcl binding) was “inhibiting Beclin 1 binding” and the “Rates of protein degradation (FIG. 5B)” value (protein degradation) was “stimulate”. For the same compound, the “Stimulate Protein Degradation” value (protein degradation) was “Yes”, the “Activate Autophagy Response” value [1] was “Yes” and the “Enhancement of autophagy” value [1] was “stimulate autophagy”.

For `O=C(c1ccc(Cl)cc1)C(C(c1ccc([N+](=O)[O-])cc1)N1CCCCC1)N1CCCCC1` (stereo not drawn) [NSC150193, 1-(4-chlorophenyl)-3-(4-nitrophenyl)-2,3-di(piperidin-1-yl)propan-1-one], the “Inhibit Beclin 1 Binding” value (Beclin 1/Bcl binding) was “Yes”, the “Beclin 1 binding to Bcl-xl / Bcl proteins” value (Beclin 1/Bcl binding) was “inhibiting Beclin 1 binding” and the “Rates of protein degradation (FIG. 5B)” value (protein degradation; listed as B2-7) was “elevated; also recorded: stimulate”. For the same compound, the “Stimulate Protein Degradation” value (protein degradation) was “Yes”, the “Proteolysis, bar coding of FIG. 5A” value (protein degradation) was “stimulated proteolysis” and the “Activate Autophagy Response” value [1] was “Yes”. For the same compound, the Induction of autophagy [1] was “NSC 150193 Induces autophagy; not tested for the induction of cell death” and the “Enhancement of autophagy” value [1] was “stimulate autophagy”.

In the case of `Clc1cc(Cl)c(C[N+]23CN4CN(CN(C4)C2)C3)cc1Cl.[Cl-]` [NSC155877, 3,5,7-Triaza-1-axoniaadamantane, 1-(2,4,5-trichlorobenzyl)-, chloride], the “Inhibit Beclin 1 Binding” value (Beclin 1/Bcl binding) is reported as “No” and the “Activate Autophagy Response” value [1] is reported as “Yes”.

With `OC(CCl)CN1CC[N+]2(CC1)CC[N+]1(CCN(CC(O)CCl)CC1)CC2.[Cl-].[Cl-]` (stereo not drawn) [NSC166100, 3,12-Bis(3-chloro-2-hydroxypropyl)-3,12-diaza-6,9-diazoniadispiro[5.2.5.2]hexadecane dichloride] the “Inhibit Beclin 1 Binding” value (Beclin 1/Bcl binding) was “No”, the “Stimulation of autophagy compared with amino acid and serum starved cells (FIG. 2G)” value [1] was “promote autophagy” and the “Activate Autophagy Response” value [1] was “Yes”. The Induction of autophagy [1] was “Induces”.

With `CN(C)CC(CN1c2ccccc2Sc2ccccc21)N(C)C` (stereo not drawn) [NSC169468] the “Stimulation of autophagy compared with amino acid and serum starved cells (FIG. 2G)” value [1] was “stimulated autophagy to levels seen in amino acid and serum starved cells”, the “Activate Autophagy Response” value [1] was “Yes” and the Induction of autophagy [1] was “NSC 169468 Induces autophagy; not tested for the induction of cell death”.

`CC1CC(C)(C)NCCNC(C)CC(C)(C)NCCN1` (stereo not drawn) [NSC175445, 5,5,7,12,12,14-hexamethyl-1,4,8,11-tetrazacyclotetradecane] was tested, and the “Inhibit Beclin 1 Binding” value (Beclin 1/Bcl binding) was “Yes”, the “Beclin 1 binding to Bcl-xl / Bcl proteins” value (Beclin 1/Bcl binding; listed as B2-11) was “inhibited Beclin 1 binding; also recorded: interfere with Beclin 1 binding” and the “Proteolysis, bar coding of FIG. 5A” value (protein degradation) was “stimulated proteolysis”. The “Activate Autophagy Response” value [1] was “Yes”, the Induction of autophagy [1] was “NSC 175445 Induces autophagy; not tested for the induction of cell death” and the “Enhancement of autophagy” value [1] was “stimulate autophagy”.

`CC(=O)C1=C(O)C2(C)c3c(O)c(C)c(O)c(C(C)=O)c3OC2CC1=O` (stereo not drawn) [NSC280057] was tested, and the “Inhibit Beclin 1 Binding” value (Beclin 1/Bcl binding) was “No”, the “Induction of cell death” value (NeuT cells; Table 2, cells not given) was “causes cell death” and the “Stimulation of autophagy compared with amino acid and serum starved cells (FIG. 2G)” value ([1]; listed as C10) was “promote autophagy; also recorded: stimulated autophagy to levels seen in amino acid and serum starved cells”. For the same compound, the “Activate Autophagy Response” value [1] was “Yes” and the Induction of autophagy [1] was “Induces autophagy”.

`CN1CCN(CCSC2Cc3cc(Cl)ccc3Sc3ccccc32)CC1` (stereo not drawn) [NSC635366] was tested, and the “Induction of cell death” value (NeuT cells) was “causes cell death”, the “Rates of protein degradation (FIG. 5B)” value (protein degradation) was “inhibit protein degradation” and the “Stimulate Protein Degradation” value (protein degradation) was “No”. The “Stimulation of autophagy compared with amino acid and serum starved cells (FIG. 2G)” value ([1]; listed as C8) was “promote autophagy; also recorded: stimulated autophagy to levels seen in amino acid and serum starved cells”, the “Activate Autophagy Response” value [1] was “Yes” and the Induction of autophagy [1] was “Induces autophagy”. The “Enhancement of autophagy” value ([1]; listed as Bx19) was “promote the accumulation of autophagic vacuoles” and the “Enhancement of autophagy” value ([1]; listed as C8) was “enhanced autophagy”.

With `Cl.NC(CSSCC(N)Cc1ccccc1)Cc1ccccc1` (stereo not drawn) [NSC656252] the “Induction of cell death” value (NeuT cells; Table 2, cells not given) was “causes cell death”, the “Activate Autophagy Response” value [1] was “Yes” and the Induction of autophagy [1] was “Induces autophagy”.
